# How the values were obtained:
# [1] = Cytotoxic assay (resazurin); details: human, HaCaT normal epidermal keratinocytes
# [2] = system: Clostridium perfringens (ATCC13124); assay: microbe, parasite or virus in culture; assay type: cell-based; details: ATCC13124, read-out: MIC Clostridium perfringens (ATCC13124)
# [3] = system: Mycobacterium tuberculosis H37Rv (mc^26230); assay: MIC assay (REMA); assay type: cell-based; details: REMA microdilution, n = 2–3
# [4] = system: Enterobacter cloacae (DSM30054); assay: MIC assay; assay type: cell-based; details: two-fold serial dilutions in liquid media, n = 2–3
# [5] = system: Bacillus anthracis (CNR-charbon_04022); assay: microbe, parasite or virus in culture; assay type: cell-based; details: read-out: MIC Bacillus anthracis (CNR-charbon_04022)
# [6] = system: Streptococcus pyogenes (DSM20565); assay: MIC assay; assay type: cell-based; details: two-fold serial dilutions in liquid media, n = 2–3
# [7] = system: Vibrio alginolyticus (DSM2171); assay: MIC assay; assay type: cell-based; details: two-fold serial dilutions in liquid media, n = 2–3
# [8] = system: M. smegmatis ATCC700084; assay: MIC assay (REMA); assay type: cell-based, Mycobacterium smegmatis; details: Mycolicibacterium smegmatis, ATCC700084, REMA microdilution, n = 2–3
# [9] = system: B. subtilis ATCC6633; assay: MIC assay; assay type: cell-based, Bacillus subtilis; details: Bacillus subtilis, ATCC6633; two-fold serial dilutions in liquid media; n = 2–3
# [10] = system: Brucella melitensis (NR-256); assay: microbe, parasite or virus in culture; assay type: cell-based; details: read-out: MIC Brucella melitensis (NR-256)
# [11] = system: Yersinia pestis (NR-641); assay: microbe, parasite or virus in culture; assay type: cell-based; details: read-out: MIC Yersinia pestis (NR-641)
# [12] = system: Mycobacterium abscessus S (CIP 104536^T); assay: MIC assay (REMA); assay type: cell-based; details: REMA microdilution, n = 2–3
# [13] = Cytotoxic assay (resazurin); details: human, A498 kidney epithelial cells
# [14] = system: Propionibacterium acnes (ATCC6919); assay: MIC assay; assay type: cell-based; details: Cutibacterium acnes, two-fold serial dilutions in liquid media, n = 2–3
# [15] = system: Bacillus cereus (DSM31); assay: MIC assay; assay type: cell-based; details: two-fold serial dilutions in liquid media, n = 2–3
# [16] = Cytotoxic assay (resazurin); details: human, HepG2 liver cells
# [17] = Cytotoxic assay (resazurin); details: human, IMR-90 normal lung fibroblasts
# [18] = system: Cryptococcus neoformans (DSM11959); assay: MIC assay; assay type: cell-based; details: two-fold serial dilutions in liquid media, n = 2–3
# [19] = system: Shigella flexneri (ATCC12022); assay: MIC assay; assay type: cell-based; details: two-fold serial dilutions in liquid media, n = 2–3
# [20] = system: Aspergillus fumigatus (DSM819); assay: MIC assay; assay type: cell-based; details: two-fold serial dilutions in liquid media, n = 2–3
# [21] = system: Clostridium botulinum (DSM1985); assay: microbe, parasite or virus in culture; assay type: cell-based; details: DSM1985, read-out: MIC Clostridium botulinum (DSM1985)
# [22] = system: MRSA (ATCCBAA-1717); assay: MIC assay; assay type: cell-based, methicillin-resistant S. aureus; details: Staphylococcus aureus, read-out: MIC MRSA (ATCCBAA-1717)
# [23] = system: E. coli ATCC8739; assay: MIC assay; assay type: cell-based, Escherichia coli; details: Escherichia coli, ATCC8739; two-fold serial dilutions in liquid media; n = 2–3
# [24] = Cytotoxic assay (resazurin); details: human, BEAS-2B normal lung epithelial cells
# [25] = system: Candida tropicalis (DSM9419); assay: MIC assay; assay type: cell-based; details: two-fold serial dilutions in liquid media, n = 2–3
# [26] = system: Fusarium oxysporum (DSM62316); assay: MIC assay; assay type: cell-based; details: two-fold serial dilutions in liquid media, n = 2–3
# [27] = Cytotoxic assay, summary over the six human cell types; details: human, 48 h exposure
# [28] = system: Enterococcus faecalis (DSM2570); assay: MIC assay; assay type: cell-based; details: two-fold serial dilutions in liquid media, n = 2–3
# [29] = system: S. aureus ATCC6538P; assay: MIC assay; assay type: cell-based, Staphylococcus aureus; details: Staphylococcus aureus, ATCC6538P; two-fold serial dilutions in liquid media; n = 2–3
# [30] = system: Candida auris (DSM21092); assay: MIC assay; assay type: cell-based; details: Candidozyma auris, two-fold serial dilutions in liquid media, n = 2–3
# [31] = system: Enterococcus faecium (DSM20477); assay: MIC assay; assay type: cell-based; details: two-fold serial dilutions in liquid media, n = 2–3
# [32] = system: Francisella tularensis (NR-643); assay: microbe, parasite or virus in culture; assay type: cell-based; details: read-out: MIC Francisella tularensis (NR-643)
# [33] = system: Salmonella enterica (CIP80.39); assay: MIC assay; assay type: cell-based; details: two-fold serial dilutions in liquid media, n = 2–3
# [34] = system: C. albicans DSM10697; assay: MIC assay; assay type: cell-based, Candida albicans; details: Candida albicans, DSM10697; two-fold serial dilutions in liquid media; n = 2–3
# [35] = system: Klebsiella pneumonia (DSM26371); assay: MIC assay; assay type: cell-based; details: two-fold serial dilutions in liquid media, n = 2–3
# [36] = system: Candida glabrata (DSM11226); assay: MIC assay; assay type: cell-based; details: Nakaseomyces glabratus, two-fold serial dilutions in liquid media, n = 2–3
# [37] = system: Clostridium difficile (DSM1296); assay: MIC assay; assay type: cell-based; details: Clostridioides difficile, two-fold serial dilutions in liquid media, n = 2–3
# [38] = system: Listeria monocytogenes (DSM20600); assay: MIC assay; assay type: cell-based; details: two-fold serial dilutions in liquid media, n = 2–3
# [39] = system: P. aeruginosa ATCC9027; assay: MIC assay; assay type: cell-based, Pseudomonas aeruginosa; details: two-fold serial dilutions in liquid media, n = 2–3
# [40] = Cytotoxic assay (resazurin); details: human, Caco-2
# [41] = system: Helicobacter pylori (ATCC43504); assay: MIC assay; assay type: cell-based; details: two-fold serial dilutions in liquid media, n = 2–3
# [42] = system: Acinetobacter baumannii (DSM30007); assay: MIC assay; assay type: cell-based; details: two-fold serial dilutions in liquid media, n = 2–3
# [43] = system: Mycobacterium abscessus R(CIP 104536^T); assay: MIC assay (REMA); assay type: cell-based; details: REMA microdilution, n = 2–3
smiles,measurement,setting,value
"CC(=O)Nc1ccc2c(c1)C(=O)/C(=C/c1ccc(OC(C)C)cc1)O2 [Compound 20, (Z)-N-(2-(4-isopropoxybenzylidene)-3-oxo-2,3-dihydrobenzofuran-5-yl)acetamide]",CC50 at 48 h,[1],323 µM
same,IC50 at 48 h,[1],323 µM
same,MIC,[2],> 100 µM
same,MIC,"[3]; Mycobacterium tuberculosis, H37RV",> 100 µM
same,MIC Mycobacterium tuberculosis H37Rv (mc^26230),[3],inactive
same,MIC,"[4]; Enterobacter cloacae, DSM30054",> 100 µM
same,MIC,[4],>100 µM
same,MIC,[5],6.25 µM
same,MIC,[6],50 µM
same,MIC,[7],50 µM
same,MIC,[8],50 µM
same,MIC,[9],25 µM
same,MIC,[10],12.5 µM
same,MIC,[11],12.5 µM
same,MIC,"[12]; Mycobacteroides abscessus, CIP104536, S morphotype",> 100 µM
same,MIC Mycobacterium abscessus S (CIP 104536^T),[12]; S morphotype,inactive
same,CC50 at 48 h,[13],453 µM
same,IC50 at 48 h,[13],453 µM
same,MIC,[14],> 100 µM
same,MIC,[15],25 µM
same,CC50 at 48 h,[16],> 500 µM
same,IC50 at 48 h,[16],> 500 µM
same,CC50 at 48 h,[17],438 µM
same,IC50 at 48 h,[17],438 µM
same,MIC,[18],25 µM
same,MIC,[19],50 µM
same,MIC,"[20]; Aspergillus fumigatus, DSM819",> 100 µM
same,MIC Aspergillus fumigatus (DSM819),[20],inactive
same,MIC,[21],3.12 µM
same,MIC,[22],25 µM
same,MIC,[23],25 µM
same,CC50 at 48 h,[24],126 µM
same,IC50 at 48 h,[24],126 µM
same,MIC,[25],100 µM
same,MIC,[26],25 µM
same,CC50 at 48 h,"[27]; Highest CC50, highest of the six human cell types",> 500 µM
same,CC50 at 48 h,"[27]; Lowest CC50, lowest of the six human cell types",126 µM
same,MIC,[28],100 µM
same,MIC,[29],12.5 µM
same,MIC,[30],12.5 µM
same,MIC,[31],25 µM
same,MIC,[32],12.5 µM
same,MIC,[33],50 µM
same,MIC,[34],50 µM
same,MIC,"[35]; Klebsiella pneumoniae, DSM26371",> 100 µM
same,MIC,[35],>100 µM
same,MIC,[36],50 µM
same,MIC,[37],3.12 µM
same,MIC,[38],6.25 µM
same,MIC,"[39]; Pseudomonas aeruginosa, ATCC9027",> 100 µM
same,MIC,[39],>100 µM
same,CC50 at 48 h,[40],186 µM
same,IC50 at 48 h,[40],186 µM
same,MIC,[41],12.5 µM
same,MIC,[42],25 µM
same,MIC,"[43]; Mycobacteroides abscessus, CIP104536, R morphotype",> 100 µM
same,MIC Mycobacterium abscessus R(CIP 104536^T),[43]; R morphotype,inactive
